Assay results from ChEMBL document CHEMBL1240428, “Conventional and microwave assisted synthesis of some new N-[(4-oxo-2-substituted aryl -1, 3-thiazolidine)-acetamidyl]-5-nitroindazoles and its antimicrobial activity” (2010).
In brackets after ≈: the same amount, converted by molar mass.

Legend:
Aspergillus flavus [1] = experiment: Antifungal activity against Aspergillus flavus at 100 ug/mL; assay type: functional; settings: read-out: IZ
Escherichia coli [2] = experiment: Antibacterial activity against Escherichia coli at 100 ug/mL; assay type: functional; settings: read-out: IZ
Penicillium citrinum [3] = experiment: Antifungal activity against Penicillium citrinum at 50 ug/mL; assay type: functional; settings: read-out: IZ
Fusarium oxysporum [4] = experiment: Antifungal activity against Fusarium oxysporum at 100 ug/mL; assay type: functional; settings: read-out: IZ
Salmonella typhi [5] = experiment: Antibacterial activity against Salmonella typhi at 50 ug/mL; settings: read-out: IZ
Penicillium citrinum [6] = experiment: Antifungal activity against Penicillium citrinum; assay type: functional
Salmonella typhi [7] = experiment: Antibacterial activity against Salmonella typhi at 100 ug/mL; settings: read-out: IZ
Fusarium oxysporum [8] = experiment: Antifungal activity against Fusarium oxysporum at 50 ug/mL; assay type: functional; settings: read-out: IZ
Fusarium oxysporum [9] = experiment: Antifungal activity against Fusarium oxysporum; assay type: functional
Bacillus subtilis [10] = experiment: Antibacterial activity against Bacillus subtilis at 100 ug/mL; assay type: functional; settings: read-out: IZ
Escherichia coli [11] = experiment: Antibacterial activity against Escherichia coli at 50 ug/mL; assay type: functional; settings: read-out: IZ
Escherichia coli [12] = experiment: Antibacterial activity against Escherichia coli; assay type: functional
Bacillus subtilis [13] = experiment: Antibacterial activity against Bacillus subtilis; assay type: functional
Salmonella typhi [14] = experiment: Antibacterial activity against Salmonella typhi
Penicillium citrinum [15] = experiment: Antifungal activity against Penicillium citrinum at 100 ug/mL; assay type: functional; settings: read-out: IZ
Aspergillus flavus [16] = experiment: Antifungal activity against Aspergillus flavus; assay type: functional
Bacillus subtilis [17] = experiment: Antibacterial activity against Bacillus subtilis at 50 ug/mL; assay type: functional; settings: read-out: IZ
Aspergillus flavus [18] = experiment: Antifungal activity against Aspergillus flavus at 50 ug/mL; assay type: functional; settings: read-out: IZ

`Cc1ccc(C2SCC(=O)N2NC(=O)Cn2ncc3cc([N+](=O)[O-])ccc32)cc1` (stereo unspecified) was tested, and the zone of inhibition at 100 µg/mL (Aspergillus flavus [1]) was 14 mm, the zone of inhibition at 100 µg/mL (Escherichia coli [2]) was 14.8 mm and the zone of inhibition at 50 µg/mL (Penicillium citrinum [3]) was 10 mm. The zone of inhibition at 100 µg/mL (Fusarium oxysporum [4]) was 15.4 mm, the zone of inhibition at 50 µg/mL (Salmonella typhi [5]) was 10.1 mm and the MIC (Penicillium citrinum [6]) was 32 µg/mL (≈ 77.8 µM). The zone of inhibition at 100 µg/mL (Salmonella typhi [7]) was 13.3 mm, the zone of inhibition at 50 µg/mL (Fusarium oxysporum [8]) was 12.9 mm and the MIC (Fusarium oxysporum [9]) was 20 µg/mL (≈ 48.6 µM). The zone of inhibition at 100 µg/mL (Bacillus subtilis [10]) was 12.2 mm, the zone of inhibition at 50 µg/mL (Escherichia coli [11]) was 12 mm and the MIC (Escherichia coli [12]) was 25 µg/mL (≈ 60.8 µM). It also gave an MIC (Bacillus subtilis [13]) of 40 µg/mL (≈ 97.2 µM), an MIC (Salmonella typhi [14]) of 30 µg/mL (≈ 72.9 µM) and a zone of inhibition at 100 µg/mL (Penicillium citrinum [15]) of 13.2 mm. It also gave an MIC (Aspergillus flavus [16]) of 23 µg/mL (≈ 55.9 µM), a zone of inhibition at 50 µg/mL (Bacillus subtilis [17]) of 9 mm and a zone of inhibition at 50 µg/mL (Aspergillus flavus [18]) of 11.1 mm.

Molecule `CN(C)c1ccc(C2SCC(=O)N2NC(=O)Cn2ncc3cc([N+](=O)[O-])ccc32)cc1` (stereo unspecified) has a zone of inhibition at 100 µg/mL (Aspergillus flavus [1]) of 15.4 mm, a zone of inhibition at 100 µg/mL (Escherichia coli [2]) of 16 mm and a zone of inhibition at 50 µg/mL (Penicillium citrinum [3]) of 11.4 mm. It also gave a zone of inhibition at 100 µg/mL (Fusarium oxysporum [4]) of 16.8 mm, a zone of inhibition at 50 µg/mL (Salmonella typhi [5]) of 11.5 mm and an MIC (Penicillium citrinum [6]) of 30 µg/mL (≈ 68.1 µM). It also gave a zone of inhibition at 100 µg/mL (Salmonella typhi [7]) of 14.9 mm, a zone of inhibition at 50 µg/mL (Fusarium oxysporum [8]) of 13.9 mm and an MIC (Fusarium oxysporum [9]) of 18 µg/mL (≈ 40.9 µM). The zone of inhibition at 100 µg/mL (Bacillus subtilis [10]) was 13.8 mm, the zone of inhibition at 50 µg/mL (Escherichia coli [11]) was 13.5 mm and the MIC (Escherichia coli [12]) was 22 µg/mL (≈ 49.9 µM). For the same molecule, the MIC (Bacillus subtilis [13]) was 36 µg/mL (≈ 81.7 µM), the MIC (Salmonella typhi [14]) was 25 µg/mL (≈ 56.8 µM) and the zone of inhibition at 100 µg/mL (Penicillium citrinum [15]) was 14.5 mm. It also gave an MIC (Aspergillus flavus [16]) of 22 µg/mL (≈ 49.9 µM), a zone of inhibition at 50 µg/mL (Bacillus subtilis [17]) of 10.4 mm and a zone of inhibition at 50 µg/mL (Aspergillus flavus [18]) of 12.6 mm.
